The source made the active and inactive calls. The calls are words filed in the database; no cut-off is given here.
How the values were obtained:
[1] = target: Serine/threonine-protein kinase B-raf (Homo sapiens) (UniProt P15056); experiment: Inhibition of BRaf (unknown origin) at 50 nM by Z'LYTE screening method relative to control
[2] = target: T1, Cyclin-dependent kinase 5/CDK5 activator 1 (Homo sapiens) (UniProt Q00535+Q15078); experiment: Inhibition of CDK5/p25 (unknown origin) at 50 nM by Z'LYTE screening method relative to control; type: protein-complex assay
[3] = target: T1, Cyclin-dependent kinase 5/CDK5 activator 1 (Homo sapiens); experiment: Inhibition of CDK5/p35 (unknown origin) at 50 nM by Z'LYTE screening method relative to control; type: protein-complex assay
[4] = target: Glycogen synthase kinase-3 beta (Homo sapiens) (UniProt P49841); experiment: Inhibition of GSK3b (unknown origin) at 50 nM by Z'LYTE screening method relative to control
[5] = target: T2, Inhibitor of nuclear factor kappa-B kinase subunit beta (Homo sapiens) (UniProt O14920); experiment: Inhibition of IKKbeta (unknown origin) at 50 nM by Z'LYTE screening method relative to control
T2 sequence (whole entry): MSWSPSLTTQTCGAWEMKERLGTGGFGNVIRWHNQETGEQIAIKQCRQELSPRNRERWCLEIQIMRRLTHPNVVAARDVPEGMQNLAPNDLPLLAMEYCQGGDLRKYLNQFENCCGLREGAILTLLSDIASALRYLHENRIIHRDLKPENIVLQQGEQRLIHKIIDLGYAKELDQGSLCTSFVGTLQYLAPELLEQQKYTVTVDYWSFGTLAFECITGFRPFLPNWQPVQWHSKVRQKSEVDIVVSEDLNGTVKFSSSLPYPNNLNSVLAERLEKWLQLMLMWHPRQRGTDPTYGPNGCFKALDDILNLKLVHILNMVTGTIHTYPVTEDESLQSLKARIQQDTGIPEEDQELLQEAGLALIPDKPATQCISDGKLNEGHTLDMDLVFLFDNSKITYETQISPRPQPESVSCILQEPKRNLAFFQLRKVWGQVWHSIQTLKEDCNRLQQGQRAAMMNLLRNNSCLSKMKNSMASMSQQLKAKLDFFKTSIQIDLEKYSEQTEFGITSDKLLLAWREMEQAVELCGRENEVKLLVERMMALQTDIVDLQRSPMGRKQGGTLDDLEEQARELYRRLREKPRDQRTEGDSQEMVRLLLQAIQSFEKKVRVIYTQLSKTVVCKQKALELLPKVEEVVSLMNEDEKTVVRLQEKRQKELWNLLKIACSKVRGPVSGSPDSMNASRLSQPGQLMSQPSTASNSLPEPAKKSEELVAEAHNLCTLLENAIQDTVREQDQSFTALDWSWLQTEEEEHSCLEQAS

[6] = target: Tyrosine-protein kinase JAK2 (Homo sapiens) (UniProt O60674); experiment: Inhibition of JAK2 (unknown origin) at 50 nM by Z'LYTE screening method relative to control
[7] = target: Mast/stem cell growth factor receptor Kit (Homo sapiens) (UniProt P10721); experiment: Inhibition of KIT (unknown origin) at 50 nM by Z'LYTE screening method relative to control
[8] = target: Tyrosine-protein kinase Lck (Homo sapiens) (UniProt P06239); experiment: Inhibition of LCK (unknown origin) at 50 nM by Z'LYTE screening method relative to control
[9] = target: Platelet-derived growth factor receptor alpha (Homo sapiens) (UniProt P16234); experiment: Inhibition of PDGFRalpha (unknown origin) at 50 nM by Z'LYTE screening method relative to control
[10] = target: cAMP-dependent protein kinase (PKA) (Homo sapiens) (UniProt P22694+P17612+P22612); experiment: Inhibition of PKA (unknown origin) at 50 nM by Z'LYTE screening method relative to control; type: protein assay
[11] = target: T3, Serine/threonine-protein kinase TBK1 (Homo sapiens) (UniProt Q9UHD2); experiment: Inhibition of TBK1 (unknown origin) at 50 nM by Z'LYTE screening method relative to control
T3 sequence (whole entry): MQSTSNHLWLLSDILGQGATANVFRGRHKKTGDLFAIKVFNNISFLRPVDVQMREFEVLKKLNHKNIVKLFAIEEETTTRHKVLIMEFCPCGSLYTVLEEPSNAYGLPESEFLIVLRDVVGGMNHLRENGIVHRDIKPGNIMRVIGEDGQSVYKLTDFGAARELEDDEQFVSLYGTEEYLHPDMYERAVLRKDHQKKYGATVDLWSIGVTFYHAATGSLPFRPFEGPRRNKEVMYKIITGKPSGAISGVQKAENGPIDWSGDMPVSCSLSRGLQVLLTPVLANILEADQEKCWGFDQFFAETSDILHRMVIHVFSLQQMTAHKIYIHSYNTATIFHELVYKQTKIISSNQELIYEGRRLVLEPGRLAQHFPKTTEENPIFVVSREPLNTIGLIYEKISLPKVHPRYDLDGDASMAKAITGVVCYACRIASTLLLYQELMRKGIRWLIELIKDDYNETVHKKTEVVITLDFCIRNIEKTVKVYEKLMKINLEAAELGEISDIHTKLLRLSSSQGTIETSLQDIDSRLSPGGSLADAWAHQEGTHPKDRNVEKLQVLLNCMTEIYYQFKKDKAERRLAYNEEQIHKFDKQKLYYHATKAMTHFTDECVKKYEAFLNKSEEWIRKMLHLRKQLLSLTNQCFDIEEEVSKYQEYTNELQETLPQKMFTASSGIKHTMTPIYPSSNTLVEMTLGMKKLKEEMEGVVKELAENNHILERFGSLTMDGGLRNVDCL

[12] = test system: MDA-MB-231; experiment: Inhibition of clonogenicity in human MDA-MB-231/M cells assessed as reduction in colony formation incubated for 7 days by crystal violet staining based analysis; type: functional, cell-based; settings: time 7.0 day
[13] = Toxicity in BALB/c mouse implanted with mouse 4T1 cells assessed as loss of body weight at 10 mg/kg, po administered 3 times a week for 30 days; type: organism-based; settings: in vivo, 720 h, time 30 day
[14] = test system: 4T1; experiment: Antitumor activity against mouse 4T1 cells xenografted in BALB/c mouse assessed as tumor growth inhibition at 10 mg/kg, po administered 3 times a week for 30 days; type: functional, organism-based; settings: time 30.0 day
[15] = test system: 4T1; experiment: Anti-metastasis activity in mouse 4T1 cells xenografted in BALB/c mouse assessed as lung metastases at 10 mg/kg, po administered 3 times a week for 30 days; type: functional, organism-based; settings: time 30.0 day

Glycogen synthase kinase-3 beta (Homo sapiens), sequence (P49841 whole entry, looked up): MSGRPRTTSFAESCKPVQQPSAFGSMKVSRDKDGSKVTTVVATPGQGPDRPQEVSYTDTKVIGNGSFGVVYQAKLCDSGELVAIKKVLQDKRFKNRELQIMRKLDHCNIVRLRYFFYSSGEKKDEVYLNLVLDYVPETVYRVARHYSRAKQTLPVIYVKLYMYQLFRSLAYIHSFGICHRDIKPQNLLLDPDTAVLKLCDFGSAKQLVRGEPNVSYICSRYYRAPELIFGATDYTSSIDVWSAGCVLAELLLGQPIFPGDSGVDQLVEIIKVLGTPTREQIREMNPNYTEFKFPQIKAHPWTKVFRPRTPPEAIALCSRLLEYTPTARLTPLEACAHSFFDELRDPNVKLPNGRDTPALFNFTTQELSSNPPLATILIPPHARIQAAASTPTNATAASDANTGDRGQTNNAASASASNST
T1 sequence (Q00535 whole entry): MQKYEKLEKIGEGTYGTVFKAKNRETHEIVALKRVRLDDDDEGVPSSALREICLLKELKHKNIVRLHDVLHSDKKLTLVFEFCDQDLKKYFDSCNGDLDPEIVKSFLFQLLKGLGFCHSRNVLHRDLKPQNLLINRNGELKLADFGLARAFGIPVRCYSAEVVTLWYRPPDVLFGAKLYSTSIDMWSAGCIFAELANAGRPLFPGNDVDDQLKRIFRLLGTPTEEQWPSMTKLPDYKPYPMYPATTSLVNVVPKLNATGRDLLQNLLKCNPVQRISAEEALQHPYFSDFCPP
T1 sequence (Q15078 99-307 partner limits assumed): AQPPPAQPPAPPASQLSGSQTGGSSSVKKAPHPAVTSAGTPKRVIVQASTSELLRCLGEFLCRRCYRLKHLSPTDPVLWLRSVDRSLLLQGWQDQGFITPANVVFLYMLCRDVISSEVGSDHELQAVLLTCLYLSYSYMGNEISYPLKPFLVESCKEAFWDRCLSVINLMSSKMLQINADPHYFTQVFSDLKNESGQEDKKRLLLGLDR
Serine/threonine-protein kinase B-raf (Homo sapiens), sequence (P15056 whole entry): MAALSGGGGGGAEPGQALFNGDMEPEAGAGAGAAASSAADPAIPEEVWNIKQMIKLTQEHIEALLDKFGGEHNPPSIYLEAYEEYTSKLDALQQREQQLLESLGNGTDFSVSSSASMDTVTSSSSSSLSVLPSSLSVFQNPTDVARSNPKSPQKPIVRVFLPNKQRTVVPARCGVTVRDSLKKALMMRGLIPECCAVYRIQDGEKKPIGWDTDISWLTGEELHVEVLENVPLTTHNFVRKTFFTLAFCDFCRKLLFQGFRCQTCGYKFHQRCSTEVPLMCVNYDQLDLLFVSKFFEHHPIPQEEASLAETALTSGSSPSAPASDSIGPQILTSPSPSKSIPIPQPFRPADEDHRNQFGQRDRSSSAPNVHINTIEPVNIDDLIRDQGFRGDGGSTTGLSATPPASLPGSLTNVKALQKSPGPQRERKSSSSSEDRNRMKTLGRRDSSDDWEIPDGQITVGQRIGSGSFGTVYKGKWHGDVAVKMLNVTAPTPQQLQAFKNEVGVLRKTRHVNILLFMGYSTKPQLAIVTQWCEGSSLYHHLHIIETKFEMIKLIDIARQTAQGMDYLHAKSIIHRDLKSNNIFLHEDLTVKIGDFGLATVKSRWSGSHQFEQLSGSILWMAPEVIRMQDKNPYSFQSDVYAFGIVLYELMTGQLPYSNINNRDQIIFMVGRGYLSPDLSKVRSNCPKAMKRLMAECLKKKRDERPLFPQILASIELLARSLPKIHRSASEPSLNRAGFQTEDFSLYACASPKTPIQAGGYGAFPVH
Mast/stem cell growth factor receptor Kit (Homo sapiens), sequence (P10721 whole entry): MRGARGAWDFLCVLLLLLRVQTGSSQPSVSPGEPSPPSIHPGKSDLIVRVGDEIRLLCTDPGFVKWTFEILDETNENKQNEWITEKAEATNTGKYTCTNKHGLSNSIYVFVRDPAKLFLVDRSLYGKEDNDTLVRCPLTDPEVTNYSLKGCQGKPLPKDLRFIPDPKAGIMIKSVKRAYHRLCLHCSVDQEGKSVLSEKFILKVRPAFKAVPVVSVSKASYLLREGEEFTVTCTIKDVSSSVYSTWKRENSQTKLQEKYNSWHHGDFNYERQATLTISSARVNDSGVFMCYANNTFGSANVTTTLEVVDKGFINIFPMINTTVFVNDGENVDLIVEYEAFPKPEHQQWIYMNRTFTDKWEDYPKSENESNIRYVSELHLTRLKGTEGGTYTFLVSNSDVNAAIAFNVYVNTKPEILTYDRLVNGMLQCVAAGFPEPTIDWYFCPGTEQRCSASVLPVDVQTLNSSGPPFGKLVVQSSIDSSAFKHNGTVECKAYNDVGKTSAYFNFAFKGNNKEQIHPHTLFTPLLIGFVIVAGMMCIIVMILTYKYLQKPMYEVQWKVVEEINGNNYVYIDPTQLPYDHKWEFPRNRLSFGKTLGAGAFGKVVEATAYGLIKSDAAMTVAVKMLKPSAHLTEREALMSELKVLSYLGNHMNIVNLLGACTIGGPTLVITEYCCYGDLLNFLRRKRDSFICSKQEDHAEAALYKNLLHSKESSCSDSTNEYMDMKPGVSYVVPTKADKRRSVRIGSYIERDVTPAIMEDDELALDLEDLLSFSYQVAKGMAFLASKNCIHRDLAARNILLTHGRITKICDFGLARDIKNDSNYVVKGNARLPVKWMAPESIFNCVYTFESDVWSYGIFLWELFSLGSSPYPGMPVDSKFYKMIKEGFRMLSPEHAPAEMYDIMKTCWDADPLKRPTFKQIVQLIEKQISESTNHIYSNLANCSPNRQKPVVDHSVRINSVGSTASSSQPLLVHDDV
Tyrosine-protein kinase JAK2 (Homo sapiens), sequence (O60674 whole entry): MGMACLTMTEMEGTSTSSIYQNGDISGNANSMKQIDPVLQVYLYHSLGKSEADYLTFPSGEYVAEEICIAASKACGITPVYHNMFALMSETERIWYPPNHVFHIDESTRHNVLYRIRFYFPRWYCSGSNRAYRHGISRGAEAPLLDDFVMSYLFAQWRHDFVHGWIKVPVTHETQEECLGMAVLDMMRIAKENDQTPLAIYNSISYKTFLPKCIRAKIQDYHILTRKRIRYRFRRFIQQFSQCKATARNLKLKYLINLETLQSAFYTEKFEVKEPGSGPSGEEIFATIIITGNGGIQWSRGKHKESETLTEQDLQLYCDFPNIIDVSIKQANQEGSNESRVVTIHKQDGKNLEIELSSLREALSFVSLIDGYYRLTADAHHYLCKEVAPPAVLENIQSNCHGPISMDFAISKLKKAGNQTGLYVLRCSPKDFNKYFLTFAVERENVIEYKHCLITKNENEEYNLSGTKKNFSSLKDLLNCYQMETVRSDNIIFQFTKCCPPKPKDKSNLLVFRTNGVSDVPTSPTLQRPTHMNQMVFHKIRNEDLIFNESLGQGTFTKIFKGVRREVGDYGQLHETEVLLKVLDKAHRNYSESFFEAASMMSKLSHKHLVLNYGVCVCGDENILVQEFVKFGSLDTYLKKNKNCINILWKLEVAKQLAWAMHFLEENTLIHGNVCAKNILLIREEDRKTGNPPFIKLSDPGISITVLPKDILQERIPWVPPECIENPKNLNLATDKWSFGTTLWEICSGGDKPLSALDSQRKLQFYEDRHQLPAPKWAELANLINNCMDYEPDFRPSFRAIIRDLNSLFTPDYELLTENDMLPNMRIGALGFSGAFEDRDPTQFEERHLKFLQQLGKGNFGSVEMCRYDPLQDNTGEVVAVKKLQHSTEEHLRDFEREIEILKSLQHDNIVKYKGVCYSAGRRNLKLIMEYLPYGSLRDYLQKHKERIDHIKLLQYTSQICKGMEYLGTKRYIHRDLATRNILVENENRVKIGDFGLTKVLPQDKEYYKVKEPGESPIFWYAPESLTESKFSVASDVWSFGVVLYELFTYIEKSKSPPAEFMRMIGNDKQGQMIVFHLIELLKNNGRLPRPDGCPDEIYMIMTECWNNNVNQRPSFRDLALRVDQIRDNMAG
Tyrosine-protein kinase Lck (Homo sapiens), sequence (P06239 2-509 limits assumed): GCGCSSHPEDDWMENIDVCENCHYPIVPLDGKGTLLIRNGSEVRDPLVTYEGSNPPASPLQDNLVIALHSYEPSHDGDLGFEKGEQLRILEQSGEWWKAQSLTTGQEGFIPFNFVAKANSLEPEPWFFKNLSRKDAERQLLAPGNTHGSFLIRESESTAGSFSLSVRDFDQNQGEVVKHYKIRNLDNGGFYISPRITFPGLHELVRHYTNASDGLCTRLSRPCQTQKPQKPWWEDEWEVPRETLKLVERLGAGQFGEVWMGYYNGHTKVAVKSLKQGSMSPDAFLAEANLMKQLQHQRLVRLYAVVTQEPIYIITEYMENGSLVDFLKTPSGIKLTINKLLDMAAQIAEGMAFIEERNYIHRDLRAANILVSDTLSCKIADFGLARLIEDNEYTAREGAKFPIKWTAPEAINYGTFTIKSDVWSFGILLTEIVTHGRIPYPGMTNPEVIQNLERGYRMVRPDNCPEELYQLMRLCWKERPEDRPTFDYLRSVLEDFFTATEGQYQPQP

Row | Structure (SMILES) | inhibition [1] | inhibition [2] | inhibition [3] | inhibition [4] | inhibition [5] | inhibition [6] | inhibition [7] | inhibition [8] | inhibition [9] | inhibition [10] | inhibition [11] | inhibition [12] | Activity [13] | Activity [14] | Activity [15]
1 | O=c1c2ccccc2[se]n1-c1nc(N[C@H]2CC[Se]C2)c2nc[nH]c2n1 | 0% | 8% | 1% | 29% | 9% | 18% | 2% | 2% | 1% | 53% | 0% | Active | Non-Toxic | Active | Active
2 | O=c1c2ccccc2[se]n1-c1nc(NC2CCCCC2)c2nc[nH]c2n1 | 10% | 4% | 2% | 10% | 6% | 17% | 1% | 13% | 16% | 22% | 0% |  |  |  | 
3 | O=C1c2ccccc2CN1c1nc(NC2CCCCC2)c2nc[nH]c2n1 | 7% | 0% | 2% | 7% | 6% | 15% | 1% | 7% | 11% | 12% | 0% |  | Toxic |  | 

— ChEMBL document CHEMBL5154740, “Novel Aurora A and Protein Kinase C (α, β1, β2, and θ) Multitarget Inhibitors: Impact of Selenium Atoms on the Potency and Selectivity” (J Med Chem, 2022)
